Data reported in ChEMBL document CHEMBL4184210, “Optimization of novel monobactams with activity against carbapenem-resistant Enterobacteriaceae - Identification of LYS228” (Bioorg Med Chem Lett, 2018).
In brackets after ≈: the same amount, converted by molar mass.

What was measured:
Escherichia coli [1] = experiment: Antimicrobial activity against Escherichia coli expressing beta-lactamase KPC-2 by CLSI broth microdilution method; format: functional
Escherichia coli [2] = experiment: Antimicrobial activity against Escherichia coli expressing beta-lactamase NDM-1 by CLSI broth microdilution method; format: functional
[3] = Chemical stability in pH 7.4 potassium phosphate buffer assessed as half life for compound hydrolysis at 37 degC by UPLC and mass spectrometry; format: physicochemical
Pseudomonas aeruginosa [4] = experiment: Antimicrobial activity against Pseudomonas aeruginosa ATCC 27853 by CLSI broth microdilution method; format: functional
Pseudomonas aeruginosa [5] = experiment: Antimicrobial activity against Pseudomonas aeruginosa expressing delta-mexB/delta-mexXY/delta-mexCD and delta-ampC mutant by CLSI broth microdilution method; format: functional
Pseudomonas aeruginosa [6] = experiment: Antimicrobial activity against Pseudomonas aeruginosa expressing delta-mexB/mexXY/delta-ampDh2/ delta-ampD by CLSI broth microdilution method; format: functional
[7] = biological target: T1, GABA A receptor alpha-2/beta-2/gamma-2 (Homo sapiens, UniProt P18507+P47869+P47870); experiment: Inhibition of recombinant human GABA A alpha2beta2gamma2 receptor expressed in CHO-K1 cells incubated at room temperature for 15 mins before the GABA addition fluorescence spectrometry; format: cell-based
T1 sequence (P47870 whole entry): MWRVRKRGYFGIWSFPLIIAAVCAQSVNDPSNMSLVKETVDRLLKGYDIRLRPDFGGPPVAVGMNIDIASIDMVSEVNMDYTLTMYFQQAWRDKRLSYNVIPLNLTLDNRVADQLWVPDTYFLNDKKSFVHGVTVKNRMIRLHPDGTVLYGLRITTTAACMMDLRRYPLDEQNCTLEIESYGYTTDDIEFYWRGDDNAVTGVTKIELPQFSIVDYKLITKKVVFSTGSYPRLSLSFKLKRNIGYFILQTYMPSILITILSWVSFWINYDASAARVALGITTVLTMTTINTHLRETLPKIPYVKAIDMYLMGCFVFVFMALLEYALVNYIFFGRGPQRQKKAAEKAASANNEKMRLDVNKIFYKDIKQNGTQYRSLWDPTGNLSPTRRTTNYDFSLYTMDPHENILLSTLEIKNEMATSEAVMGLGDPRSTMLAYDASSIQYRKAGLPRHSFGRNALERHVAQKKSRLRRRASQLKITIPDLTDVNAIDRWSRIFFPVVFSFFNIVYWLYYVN
T1 sequence (P18507 whole entry): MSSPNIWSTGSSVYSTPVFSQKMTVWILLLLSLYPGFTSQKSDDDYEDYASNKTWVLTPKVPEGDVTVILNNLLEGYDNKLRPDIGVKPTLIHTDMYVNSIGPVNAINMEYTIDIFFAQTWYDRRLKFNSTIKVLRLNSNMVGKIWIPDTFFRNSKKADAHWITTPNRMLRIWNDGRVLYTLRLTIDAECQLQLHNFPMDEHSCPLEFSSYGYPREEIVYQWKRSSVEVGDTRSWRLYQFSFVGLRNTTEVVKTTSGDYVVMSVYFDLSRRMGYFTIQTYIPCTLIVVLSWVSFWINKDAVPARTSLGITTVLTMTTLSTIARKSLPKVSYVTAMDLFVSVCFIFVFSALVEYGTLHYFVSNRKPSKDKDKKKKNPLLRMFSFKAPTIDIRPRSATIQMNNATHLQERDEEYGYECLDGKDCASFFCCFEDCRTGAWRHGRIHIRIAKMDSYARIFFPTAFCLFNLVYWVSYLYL
T1 sequence (P47869 whole entry): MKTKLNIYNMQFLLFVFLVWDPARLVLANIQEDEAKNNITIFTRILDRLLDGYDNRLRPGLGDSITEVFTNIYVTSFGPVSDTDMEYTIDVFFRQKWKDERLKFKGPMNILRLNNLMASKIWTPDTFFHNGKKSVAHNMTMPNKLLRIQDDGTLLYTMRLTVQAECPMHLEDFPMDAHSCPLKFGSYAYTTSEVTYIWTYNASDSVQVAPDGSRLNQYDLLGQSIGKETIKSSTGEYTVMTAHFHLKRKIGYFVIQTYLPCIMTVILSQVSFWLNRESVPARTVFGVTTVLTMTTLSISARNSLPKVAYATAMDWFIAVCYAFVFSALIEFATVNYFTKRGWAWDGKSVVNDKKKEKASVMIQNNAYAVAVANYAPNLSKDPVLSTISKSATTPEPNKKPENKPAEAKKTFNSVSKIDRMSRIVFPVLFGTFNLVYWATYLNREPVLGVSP

Escherichia coli [8] = experiment: microbe, parasite or virus in culture
Description: Antimicrobial activity against wild type Escherichia coli by CLSI broth microdilution method

Escherichia coli [9] = experiment: microbe, parasite or virus in culture; remark: listed apart in the source
Description: Antimicrobial activity against Escherichia coli expressing beta-lactamase CTXM-3 by CLSI broth microdilution method

Escherichia coli [10] = experiment: microbe, parasite or virus in culture; remark: listed apart in the source
Description: Antimicrobial activity against Escherichia coli expressing beta-lactamase CTXM-15 by CLSI broth microdilution method

Escherichia coli [11] = experiment: microbe, parasite or virus in culture; remark: listed apart in the source
Description: Antimicrobial activity against Escherichia coli expressing beta-lactamase GES-1 by CLSI broth microdilution method

Escherichia coli [12] = experiment: microbe, parasite or virus in culture; remark: listed apart in the source
Description: Antimicrobial activity against Escherichia coli expressing beta-lactamase KPC-4 by CLSI broth microdilution method

Escherichia coli [13] = experiment: microbe, parasite or virus in culture; remark: listed apart in the source
Description: Antimicrobial activity against Escherichia coli expressing beta-lactamase PER-1 by CLSI broth microdilution method

Escherichia coli [14] = experiment: microbe, parasite or virus in culture; remark: listed apart in the source
Description: Antimicrobial activity against Escherichia coli expressing beta-lactamase PER-2 by CLSI broth microdilution method

Escherichia coli [15] = experiment: microbe, parasite or virus in culture; remark: listed apart in the source
Description: Antimicrobial activity against Escherichia coli expressing beta-lactamase VEB-4 by CLSI broth microdilution method

Escherichia coli [16] = experiment: microbe, parasite or virus in culture; remark: listed apart in the source
Description: Antimicrobial activity against Escherichia coli expressing beta-lactamase VEB-7 by CLSI broth microdilution method

Escherichia coli [17] = experiment: microbe, parasite or virus in culture; remark: listed apart in the source
Description: Antimicrobial activity against Escherichia coli expressing beta-lactamase TEM-24 by CLSI broth microdilution method

Escherichia coli [18] = experiment: microbe, parasite or virus in culture; remark: listed apart in the source
Description: Antimicrobial activity against Escherichia coli expressing beta-lactamase TEM-47 by CLSI broth microdilution method

Escherichia coli [19] = experiment: microbe, parasite or virus in culture; remark: listed apart in the source
Description: Antimicrobial activity against Escherichia coli expressing beta-lactamase TEM-121 by CLSI broth microdilution method

Escherichia coli [20] = experiment: microbe, parasite or virus in culture; remark: listed apart in the source
Description: Antimicrobial activity against Escherichia coli expressing beta-lactamase IMP-1 by CLSI broth microdilution method

Escherichia coli [21] = experiment: microbe, parasite or virus in culture; remark: listed apart in the source
Description: Antimicrobial activity against Escherichia coli expressing beta-lactamase SPM-1 by CLSI broth microdilution method

Escherichia coli [22] = experiment: microbe, parasite or virus in culture; remark: listed apart in the source
Description: Antimicrobial activity against Escherichia coli expressing beta-lactamase AmpC by CLSI broth microdilution method

Escherichia coli [23] = experiment: microbe, parasite or virus in culture; remark: listed apart in the source
Description: Antimicrobial activity against Escherichia coli expressing beta-lactamase CMY-2 by CLSI broth microdilution method

Escherichia coli [24] = experiment: microbe, parasite or virus in culture; remark: listed apart in the source
Description: Antimicrobial activity against Escherichia coli expressing beta-lactamase MIR-1 by CLSI broth microdilution method

Escherichia coli [25] = experiment: microbe, parasite or virus in culture; remark: listed apart in the source
Description: Antimicrobial activity against Escherichia coli expressing beta-lactamase Oxa-10 by CLSI broth microdilution method

Escherichia coli [26] = experiment: microbe, parasite or virus in culture; remark: listed apart in the source
Description: Antimicrobial activity against Escherichia coli expressing beta-lactamase Oxa-40 by CLSI broth microdilution method

Escherichia coli [27] = experiment: microbe, parasite or virus in culture; remark: listed apart in the source
Description: Antimicrobial activity against Escherichia coli expressing beta-lactamase Oxa-48 by CLSI broth microdilution method

Escherichia coli [28] = experiment: microbe, parasite or virus in culture; remark: listed apart in the source
Description: Antimicrobial activity against Escherichia coli expressing beta-lactamase Oxa-51 by CLSI broth microdilution method

Escherichia coli [29] = experiment: microbe, parasite or virus in culture; remark: listed apart in the source
Description: Antimicrobial activity against Escherichia coli expressing beta-lactamase Oxa-146 by CLSI broth microdilution method

Escherichia coli [30] = experiment: microbe, parasite or virus in culture; remark: listed apart in the source
Description: Antimicrobial activity against Escherichia coli expressing beta-lactamase Oxa-160 by CLSI broth microdilution method

Escherichia coli [31] = experiment: microbe, parasite or virus in culture; remark: listed apart in the source
Description: Antimicrobial activity against Escherichia coli expressing beta-lactamase Oxa-225 by CLSI broth microdilution method

Compound	MIC (Escherichia coli [1])	MIC (Escherichia coli [2])	half-life [3]	MIC (Pseudomonas aeruginosa [4])	MIC (Pseudomonas aeruginosa [5])	MIC (Pseudomonas aeruginosa [6])	IC50 [7]	MIC (Escherichia coli [8])	MIC (Escherichia coli [9])	MIC (Escherichia coli [10])	MIC (Escherichia coli [11])	MIC (Escherichia coli [12])	MIC (Escherichia coli [13])	MIC (Escherichia coli [14])	MIC (Escherichia coli [15])	MIC (Escherichia coli [16])	MIC (Escherichia coli [17])	MIC (Escherichia coli [18])	MIC (Escherichia coli [19])	MIC (Escherichia coli [20])	other results
N=C(N)NCc1cnn(C[C@@H]2[C@H](NC(=O)/C(=N\OC3(C(=O)O)CC3)c3csc(N)n3)C(=O)N2S(=O)(=O)O)n1 (stereo in doubt)	0.125 µg/mL (≈ 0.219 µM)	≤ 0.06 µg/mL	20.2 days	2 µg/mL (≈ 3.5 µM)	0.25 µg/mL (≈ 0.437 µM)	32 µg/mL (≈ 56 µM)	190 µM	0.06 µg/mL (≈ 0.105 µM)	0.25 µg/mL (≈ 0.437 µM)	0.125 µg/mL (≈ 0.219 µM)	0.06 µg/mL (≈ 0.105 µM)	4 µg/mL (≈ 7 µM)	64 µg/mL (≈ 112 µM)	> 64 µg/mL	16 µg/mL (≈ 28 µM)	32 µg/mL (≈ 56 µM)	0.25 µg/mL (≈ 0.437 µM)	0.125 µg/mL (≈ 0.219 µM)	0.5 µg/mL (≈ 0.875 µM)	0.125 µg/mL (≈ 0.219 µM)	MIC (Escherichia coli [21]): 0.06 µg/mL (≈ 0.105 µM); MIC (Escherichia coli [22]): 0.5 µg/mL (≈ 0.875 µM); MIC (Escherichia coli [23]): 0.5 µg/mL (≈ 0.875 µM); MIC (Escherichia coli [24]): 0.5 µg/mL (≈ 0.875 µM); MIC (Escherichia coli [25]): 0.25 µg/mL (≈ 0.437 µM); MIC (Escherichia coli [26]): 0.125 µg/mL (≈ 0.219 µM); MIC (Escherichia coli [27]): 0.06 µg/mL (≈ 0.105 µM); MIC (Escherichia coli [28]): 0.125 µg/mL (≈ 0.219 µM); MIC (Escherichia coli [29]): 4 µg/mL (≈ 7 µM); MIC (Escherichia coli [30]): 0.125 µg/mL (≈ 0.219 µM); MIC (Escherichia coli [31]): 0.25 µg/mL (≈ 0.437 µM)
NC[C@@H]1CN(C[C@@H]2[C@H](NC(=O)/C(=N\OC3(C(=O)O)CC3)c3csc(N)n3)C(=O)N2S(=O)(=O)O)C(=O)O1 (stereo in doubt)	0.125 µg/mL (≈ 0.228 µM)	0.125 µg/mL (≈ 0.228 µM)	6.54 days	32 µg/mL (≈ 58.4 µM)	16 µg/mL (≈ 29.2 µM)	> 32 µg/mL	1340 µM	0.125 µg/mL (≈ 0.228 µM)	≤ 0.06 µg/mL	0.125 µg/mL (≈ 0.228 µM)	0.06 µg/mL (≈ 0.11 µM)	1 µg/mL (≈ 1.83 µM)	> 64 µg/mL	> 32 µg/mL	32 µg/mL (≈ 58.4 µM)	32 µg/mL (≈ 58.4 µM)	0.125 µg/mL (≈ 0.228 µM)	≤ 0.06 µg/mL	≤ 0.06 µg/mL	0.06 µg/mL (≈ 0.11 µM)	MIC (Escherichia coli [21]): 0.06 µg/mL (≈ 0.11 µM); MIC (Escherichia coli [22]): 0.125 µg/mL (≈ 0.228 µM); MIC (Escherichia coli [23]): 0.125 µg/mL (≈ 0.228 µM); MIC (Escherichia coli [24]): ≤ 0.06 µg/mL; MIC (Escherichia coli [25]): 0.125 µg/mL (≈ 0.228 µM); MIC (Escherichia coli [26]): 0.125 µg/mL (≈ 0.228 µM); MIC (Escherichia coli [27]): 0.06 µg/mL (≈ 0.11 µM); MIC (Escherichia coli [28]): ≤ 0.06 µg/mL; MIC (Escherichia coli [29]): 2 µg/mL (≈ 3.65 µM); MIC (Escherichia coli [30]): 0.25 µg/mL (≈ 0.457 µM); MIC (Escherichia coli [31]): 0.5 µg/mL (≈ 0.913 µM)
